In the supplement of paper PMC10307832:

Legend:
Assay in all cases: relative viability (nuclei count vs DMSO), 5 days (fraction); higher = more cells survive
[1] = compound: CCN1CCN(c2ccc(Nc3cc(N(C)C(=O)Nc4c(Cl)c(OC)cc(OC)c4Cl)ncn3)cc2)CC1 [BGJ398] + Cc1nc(NC(=O)N2CCC[C@H]2C(N)=O)sc1-c1ccnc(C(C)(C)C(F)(F)F)c1 [Alpelisib] (partner 2 µM)
Method in brief: (§1)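 Dosing by pin tool came one day after lung cancer cell lines were seeded in 1536-well plates, using either one drug or a fixed anchor-drug dose plus five library-drug doses (not always all listed) in √10 steps. After 5 days, nuclei were counted on 4× images. Relative viability is treated-well nuclei count divided by vehicle-well nuclei count, and values are medians of duplicate plates.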

[2] = compound: C1=CC2=NC=CN=C2C=C1/C=C/3\C(=O)NC(=O)S3 + O=C(CCCCCCC(=O)Nc1ccccc1)NO [Vorinostat] (partner 1 µM)
Method in brief: as §1

[3] = compound: CCN1CCN(c2ccc(Nc3cc(N(C)C(=O)Nc4c(Cl)c(OC)cc(OC)c4Cl)ncn3)cc2)CC1 [BGJ398] + CS(=O)(=O)CCNCc1ccc(-c2ccc3ncnc(Nc4ccc(OCc5cccc(F)c5)c(Cl)c4)c3c2)o1 [Lapatinib] (partner 2 µM)
Method in brief: as §1

[4] = compound: C1=CC2=NC=CN=C2C=C1/C=C/3\C(=O)NC(=O)S3 + Nc1ncn([C@H]2C[C@H](O)[C@@H](CO)O2)c(=O)n1 [Decitabine] (partner 2 µM)
Method in brief: as §1

Cell Line	relative viability ([1]; first compound 0.01 µM)	relative viability ([1]; first compound 0.03162 µM)	relative viability ([1]; first compound 0.1 µM)	relative viability ([1]; first compound 0.3162 µM)	relative viability ([1]; first compound 1 µM)	relative viability ([2]; first compound 0.02 µM)	relative viability ([2]; first compound 0.06325 µM)	relative viability ([2]; first compound 0.2 µM)	relative viability ([2]; first compound 0.6325 µM)	relative viability ([2]; first compound 2 µM)	relative viability ([3]; first compound 0.01 µM)	relative viability ([3]; first compound 0.03162 µM)	relative viability ([3]; first compound 0.1 µM)	relative viability ([3]; first compound 0.3162 µM)	relative viability ([3]; first compound 1 µM)	relative viability ([4]; first compound 0.02 µM)	relative viability ([4]; first compound 0.06325 µM)	relative viability ([4]; first compound 0.2 µM)	relative viability ([4]; first compound 0.6325 µM)	relative viability ([4]; first compound 2 µM)
LU99A	0.532	0.49	0.534	0.487	0.411	0.425	0.515	0.506	0.42	0.268	0.935	0.896	1.07	0.913	0.85	0.932	0.828	0.884	0.751	0.725
LXF-289	0.983	1.03	1.02	0.957	0.947	0.778	0.576	0.73	0.778	0.852	0.827	0.85	0.817	0.77	0.7	0.357	0.374	0.334	0.379	0.389
NCI-H23	0.746	0.652	0.666	0.625	0.574	0.508	0.588	0.697	0.546	0.385	1.02	1.06	1.3	0.99	1.07	0.329	0.357	0.322	0.286	0.3
NCI-H322M	0.772	0.741	0.851	0.761	0.813	0.893	0.852	0.905	0.891	0.744	0.675	0.561	0.551	0.581	0.58	0.693	0.776	0.798	0.665	0.692
NCI-H358	0.881	0.893	0.857	0.97	0.937	0.674	0.714	0.725	0.659	0.579	0.452	0.43	0.442	0.386	0.519	0.227	0.22	0.221	0.268	0.182
NCI-H460	0.47	0.594	0.574	0.566	0.422	0.657	0.668	0.759	0.716	0.819	1.02	1.05	1.6	1	1.23	0.524	0.389	0.515	0.459	0.534
NCI-H520	0.888	0.886	0.506	0.414	0.243	0.879	0.834	0.645	0.802	0.677	0.747	0.722	0.661	0.339	0.281	0.481	0.545	0.482	0.436	0.562
NCI-H596	0.608	0.442	0.506	0.441	0.561	0.581	0.59	0.646	0.499	0.6	1.16	0.937	0.974	0.824	0.496	0.886	0.954	1.09	0.972	1.72
NCI-H647	1.05	1.19	1.06	1.26	1.15	0.545	0.898	0.485	0.546	0.494	1.03	1.11	1.21	0.949	1.06	0.339	0.458	0.382	0.432	0.488
NCI-H650	1.05	1.2	1.33	1.19	1.1	0.465	0.377	0.434	0.42	0.254	0.809	0.906	0.837	0.841	0.597	0.32	0.287	0.356	0.319	0.342
NCI-H661	0.594	1.08	0.715	0.526	0.614	0.75	0.86	0.845	0.799	0.948	0.501	0.595	0.473	0.457	0.49	0.555	0.571	0.574	0.527	0.575
NCI-H727	0.625	0.665	0.524	0.578	0.5	1.23	1.15	1.23	1.22	0.679	1.05	0.799	1.22	0.789	0.648	0.891	0.848	0.957	0.915	0.445
NCI-H838	0.84	0.955	0.968	0.895	0.732	0.674	0.702	0.762	0.686	0.579	0.755	0.867	0.914	0.623	0.413	0.429	0.46	0.415	0.481	0.39
NCI-H1355	0.71	0.828	0.9	0.837	0.823	0.584	0.571	0.623	0.631	0.519	0.936	1.05	1.01	0.95	0.644	0.348	0.353	0.357	0.367	0.33
NCI-H1395	0.982	1.02	0.994	0.719	0.604	1	0.733	0.824	0.77	0.668	1.1	1.75	0.823	0.569	0.476	0.637	0.693	0.74	0.703	0.651
NCI-H1437	0.96	0.989	0.955	0.991	0.972	0.728	0.874	0.815	0.811	0.815	0.829	0.762	0.905	0.729	0.644	0.548	0.546	0.588	0.536	0.617

Cell Line	relative viability ([1]; first compound 0.01 µM)	relative viability ([1]; first compound 0.03162 µM)	relative viability ([1]; first compound 0.1 µM)	relative viability ([1]; first compound 0.3162 µM)	relative viability ([1]; first compound 1 µM)	relative viability ([2]; first compound 0.02 µM)	relative viability ([2]; first compound 0.06325 µM)	relative viability ([2]; first compound 0.2 µM)	relative viability ([2]; first compound 0.6325 µM)	relative viability ([2]; first compound 2 µM)	relative viability ([3]; first compound 0.01 µM)	relative viability ([3]; first compound 0.03162 µM)	relative viability ([3]; first compound 0.1 µM)	relative viability ([3]; first compound 0.3162 µM)	relative viability ([3]; first compound 1 µM)	relative viability ([4]; first compound 0.02 µM)	relative viability ([4]; first compound 0.06325 µM)	relative viability ([4]; first compound 0.2 µM)	relative viability ([4]; first compound 0.6325 µM)	relative viability ([4]; first compound 2 µM)
NCI-H1651	1.04	0.952	0.961	0.918	0.939	0.504	0.502	0.6	0.588	0.483	0.796	0.897	0.962	0.693	0.676	0.56	0.424	0.651	0.576	0.552
NCI-H1666	1.01	1.08	1.01	0.922	0.909	0.912	0.927	0.968	0.984	0.785	0.656	0.704	0.508	0.7	0.255	0.717	0.709	0.775	0.691	0.672
NCI-H1734	0.678	0.654	0.725	0.676	0.742	0.846	–	0.907	0.767	0.556	0.992	1.03	1.11	0.961	1.06	0.483	–	0.517	0.501	0.489
NCI-H1755	0.861	0.965	1.05	0.908	0.889	0.681	0.695	0.832	0.858	0.818	1.01	1.04	1.05	1.01	1.01	0.74	0.628	0.729	0.689	0.685
NCI-H1793	0.676	–	0.955	0.696	0.549	0.635	0.616	0.765	0.676	0.679	0.652	–	0.564	0.402	0.427	0.417	0.391	0.559	0.447	0.552
NCI-H1915	0.981	1.05	1.1	1.08	1.05	0.578	0.525	0.636	0.468	0.499	0.976	0.977	0.988	1.01	0.928	0.238	0.281	0.28	0.252	0.281
NCI-H1944	0.689	0.816	0.899	0.805	0.845	0.515	0.511	0.551	0.536	0.512	0.784	0.813	0.84	0.78	0.603	0.364	0.386	0.432	0.423	0.462
NCI-H1975	0.601	0.642	0.745	0.667	0.61	0.683	0.734	0.735	0.731	0.674	0.915	0.903	0.859	0.899	0.785	0.362	0.359	0.436	0.37	0.359
NCI-H1993	0.689	0.623	0.642	0.746	0.7	0.734	0.843	1.08	0.767	0.008	0.8	0.825	0.87	0.935	0.746	0.527	0.594	0.737	0.557	0.507
NCI-H2009	1.13	1.19	1.11	1.17	1.09	0.659	0.716	0.714	0.685	0.703	0.863	0.966	0.965	0.924	0.955	0.353	0.388	0.358	0.381	0.352
NCI-H2023	0.576	0.644	0.534	0.586	0.579	0.675	0.51	0.739	0.632	0.441	0.766	0.872	0.743	0.894	0.742	0.205	0.237	0.205	0.195	0.222
NCI-H2085	0.96	1.01	0.93	0.975	0.921	0.729	0.716	0.799	0.781	0.748	0.744	0.784	0.802	0.677	0.663	0.495	0.457	0.578	0.539	0.566
NCI-H2087	0.99	1.17	1.05	1.19	1.18	0.536	0.742	0.58	0.646	0.469	0.951	0.975	1.09	1.17	0.885	0.355	0.255	0.256	0.253	0.267
NCI-H2126	0.78	0.746	0.735	0.766	0.853	0.666	0.825	0.843	0.801	0.462	0.808	0.765	0.764	0.785	0.678	0.567	0.647	0.567	0.527	0.481
NCI-H2170	0.815	0.756	0.938	0.734	0.853	0.732	0.583	0.846	0.776	0.878	0.289	0.197	0.256	0.268	0.264	0.467	0.47	0.451	0.414	0.46
NCI-H2347	1.01	1.04	1.01	1.13	1.08	0.53	0.565	0.718	0.49	0.591	0.913	1.02	0.944	0.926	0.893	0.631	0.829	0.631	0.586	0.546
